Holding throughout (assay type): cell-based
The test system of one assay is H358 cells. In words: H358 proliferation assay (CellTiter-Glo). The settings on record: 120 h incubation, read-out: IC50 (nM), inhibitory activity against H358 cell proliferation. Here is the method:
The inhibitory activity of the compounds of the present disclosure against H358 cell proliferation was measured. Below is a brief description of the experimental method: H358 cells (ATCC, CRL-5807) were cultured in RPMI1640 medium (Hyclone, SH30809.01) containing 10% fetal bovine serum (Corning, 35-076-CV) (i.e., complete medium). On the first day of the experiment, H358 cells were seeded into a 96-well plate at a density of 1200 cells/well using complete medium, with 100 μL of cell suspension per well, and the plate was incubated overnight in a 37° C., 5% CO2 cell incubator. On the second day, the test compounds, prepared in complete medium and serially diluted, were added at 10 μL/well. The final concentrations of the compounds were 9 concentration points obtained by a 5-fold serial dilution from 10 μM. A blank control containing 0.5% DMSO was set up. The plate was incubated for 120 h in a 37° C., 5% CO2 cell incubator. On the seventh day, the 96-well cell plate was removed from the incubator, and CellTiter-Glo® Luminescent Cell Viability Assay (Promega, G7573) was added at 50 μL/well. After 10 min of room temperature incubation, luminescence signals were measured using a multifunctional microplate reader (PerkinElmer, EnVision® 2105). The IC50 values for the inhibitory activity of the compounds were calculated using Graphpad Prism software.
In general terms: Cellular ATP, detected with luciferase, serves as a proxy for viable cell number.

The test system of the next assay is MIA PaCa-2 cells. In words: MIA PaCa-2 cell proliferation assay (CellTiter-Glo). Particulars: 72 h incubation, read-out: IC50 (nM), inhibitory activity against MIA PaCa-2 cell proliferation. Here is the method:
The inhibitory activity of the compounds of the present disclosure against MIA PaCa-2 cell proliferation was measured. Below is a brief description of the experimental method:
MIA PaCa-2 cells (ATCC, CRL-1420) were cultured in DMEM/HIGH GLUCOSE medium (GE, SH30243.01) containing 10% fetal bovine serum (Corning, 35-076-CV) and 2.5% horse serum (Beyotime Biological Tech., C0262) (i.e., complete medium). On the first day of the experiment, MIA PaCa-2 cells were seeded into a 96-well plate at a density of 500 cells/well using complete medium, with 90 µL of cell suspension per well, and the plate was incubated overnight in a 37° C., 5% CO2 cell incubator. On the second day, the test compounds, prepared in complete medium and serially diluted, were added at 10 μL/well. The final concentrations of the compounds were 9 concentration points obtained by a 5-fold serial dilution from 10 μM. A blank control containing 0.5% DMSO was set up. The plate was incubated for 72 h in a 37° C., 5% CO2 cell incubator. On the fifth day, the 96-well cell plate was removed from the incubator, and CellTiter-Glo® Luminescent Cell Viability Assay (Promega, G7573) was added at 50 μL/well. After 10 min of room temperature incubation, luminescence signals were measured using a multifunctional microplate reader (PerkinElmer, EnVision2015). The IC50 values for the inhibitory activity of the compounds were calculated using Graphpad Prism software.

Assay [1] deals with ERK phosphorylation in H358 cells. In words: H358 cell ERK phosphorylation inhibition assay (HTRF pERK/total ERK). The settings on record: 3 h incubation, ratio of pERK/total ERK, read-out: IC50 (nM), inhibitory effects on ERK phosphorylation in H358 cells. As to the method: The inhibitory effects of the compounds of the present disclosure on ERK phosphorylation in H358 cells were measured. Below is a brief description of the experimental method: H358 cells (ATCC, CRL-5807) were cultured in RPMI1640 medium (Hyclone, SH30809.01) containing 10% fetal bovine serum (Corning, 35-076-CV) (i.e., complete medium). On the first day of the experiment, H358 cells were seeded into a 96-well plate at a density of 25,000 cells/well using complete medium, with 190 μL of cell suspension per well, and the plate was incubated overnight in a 37° C., 5% CO2 cell incubator. On the second day, the test compounds, prepared in complete medium and serially diluted, were added at 10 μL/well. The final concentrations of the compounds were 9 concentration points obtained by a 6-fold serial dilution from 10 μM. A blank control containing 0.5% DMSO was set up. The plate was incubated for 3 h in a 37° C., 5% CO2 cell incubator. After 3 h, the 96-well cell culture plate was removed from the incubator, and the culture medium was pipetted off. PBS (Shanghai BasalMedia Technologies Co., Ltd., B320) was added at 200 μL/well for a single wash. PBS was pipetted off, and lysis buffer (Cisbio, 64KL1FDF) containing a blocking agent (Cisbio, 64KB1AAC) was added at 50 μL/well. The plate was incubated on a shaker for 30 min at room temperature to lyse the cells. After lysis, the lysates were well mixed by pipetting, and 16 μL of lysate was transferred from each well to two HTRF 96-well assay plates (Cisbio, 66PL96100). Subsequently, 4 μL of a premixed phospho-ERK1/2 antibody solution (Cisbio, 64AERPEG) or 4 μL of a premixed total-ERK1/2 antibody solution (Cisbio, 64NRKPEG) was added to each of the plates. The plates were sealed with a plate sealer film, centrifuged for 1 min in a microplate centrifuge, and incubated overnight at room temperature in the dark. On the third day, fluorescence values at an excitation wavelength of 337 nm and emission wavelengths of 665 nm and 620 nm were measured using a PHERAstar multifunctional microplate reader (BMG Labtech, PHERAstar FS). The IC50 values for the inhibitory activity of the compounds were calculated using Graphpad Prism software, based on the compound concentration and the ratio of pERK/total ERK.

Each structure is given as a SMILES string. Where two headings read alike, the source gives them in different places.

With `C=CC(=O)N1CCN2C(=O)c3cc(F)c(-c4ccc(F)c5sc(N)c(C#N)c45)c4c(C)cn(c34)CC[C@H]2C1` (atropisomer, axis not shown) [Example 18-P2, (S)-4-((S)-10-Acryloyl-2-fluoro-4-methyl-14-oxo-8,8a,9,10,11,12-hexahydro-7H,14H-pyrazino[1′,2′:5,6][1,5]diazocino[3,2,1-hi]indol-3-yl)-2-amino-7-fluorobenzo[b]thiophene-3-carbonitrile], the IC50 came out at 9.57 nM in the assay on H358 cells (Homo sapiens, NCI-H358, 120 h); 9.16 nM in the assay with MIA PaCa-2 cells (Homo sapiens, MIA PaCa-2, 72 h); 1.09 nM in assay [1] (Homo sapiens, NCI-H358, 3 h).

On to `C=CC(=O)N1CCN2C(=O)c3cc(F)c(-c4ccc(F)c5sc(N)c(C#N)c45)c4nnn(c34)CC[C@H]2C1` (atropisomer, axis not shown) [Example 20-P1, (R)-4-((S)-9-Acryloyl-2-fluoro-12-oxo-7,7a,8,9,10,11-hexahydro-6H,12H-4,5,5a,9,11a-pentaazabenzo[5,6]cycloocta[1,2,3-cd]inden-3-yl)-2-amino-7-fluorobenzo[b]thiophene-3-carbonitrile], for which the IC50 with H358 cells is 4.94 nM; in the assay with MIA PaCa-2 cells, 1.66 nM; in assay [1] it was 3.67 nM.

Regarding `C=CC(=O)N1CCN2C(=O)c3cc(F)c(-c4ccc(F)c5sc(N)nc45)c4ccn(c34)CC[C@H]2C1` [Example 3, (8aS)-10-Acryloyl-3-(-2-amino-7-fluorobenzo[d]thiazol-4-yl)-2-fluoro-8,8a,9,10,11,12-hexahydro-7H,14H-pyrazino[1′,2′:5,6][1,5]diazocino[3,2,1-hi]indol-14-one], the IC50 in assay [1] (Homo sapiens, NCI-H358, 3 h) is 23.7 nM.

For the compound `C=CC(=O)N1C[C@@H]2CCn3ncc4c(-c5ccc(F)c6sc(N)c(C#N)c56)c(F)cc(c43)C(=O)N2C[C@H]1C` [Example 10, 4-((8aS,11R)-10-Acryloyl-2-fluoro-11-methyl-14-oxo-8,8a,9,10,11,12-hexahydro-7H,14H-pyrazino[1′,2′:5,6][1,5]diazocino[3,2,1-hi]indazol-3-yl)-2-amino-7-fluorobenzo[b]thiophene-3-carbonitrile], the IC50 was determined as 0.8 nM in the assay on H358 cells (Homo sapiens, NCI-H358, 120 h); 0.94 nM with MIA PaCa-2 cells (Homo sapiens, MIA PaCa-2, 72 h); 0.15 nM in assay [1] (Homo sapiens, NCI-H358, 3 h).

For the compound `C=CC(=O)N1CCN2C(=O)c3c(F)c(F)c(-c4ccc(F)c5sc(N)c(C#N)c45)c4cnn(c34)CC[C@H]2C1` (atropisomer, axis not shown) [Example 11-P1, (R)-4-((S)-10-Acryloyl-1,2-difluoro-14-oxo-8,8a,9,10,11,12-hexahydro-7H,14H-pyrazino[1′,2′:5.6][1,5]diazocino[3,2,1-hi]indazol-3-yl)-2-amino-7-fluorobenzo[b]thiophene-3-carbonitrile], the IC50 in the assay on H358 cells came to 2.25 nM; in the assay on MIA PaCa-2 cells, 2.71 nM; in assay [1], 7.67 nM.

On to `C=CC(=O)N1CCN2C(=O)c3cc(F)c(-c4ccc(F)c5sc(N)c(C#N)c45)c4cnn(c34)C[C@H]2C1` [Example 14, 4-((R)-10-Acryloyl-4-fluoro-6-oxo-8,9,10,11,11a,12-hexahydro-6H-pyrazino[2′,1′:3,4][1,4]diazepino[6,7,1-hi]indazol-3-yl)-2-amino-7-fluorobenzo[b]thiophene-3-carbonitrile], for which the IC50 came out at 39.6 nM with MIA PaCa-2 cells (Homo sapiens, MIA PaCa-2, 72 h) and 1.35 nM in assay [1] (Homo sapiens, NCI-H358, 3 h).

In the case of `C=CC(=O)N1CCN2C(=O)c3cc(F)c(-c4ccc(F)c5sc(N)c(C#N)c45)c4ccn(c34)CC[C@H]2C1` [Example 2, 4-((S)-10-Acryloyl-2-fluoro-14-oxo-8,8a,9,10,11,12-hexahydro-7H,14H-pyrazino[1′,2′:5,6][1,5]diazocino[3,2,1-hi]indol-3-yl)-2-amino-7-fluorobenzo[b]thiophene-3-carbonitrile], the IC50 was 10.5 nM in the assay with H358 cells (Homo sapiens, NCI-H358, 120 h); 5.87 nM with MIA PaCa-2 cells (Homo sapiens, MIA PaCa-2, 72 h); 0.28 nM in assay [1] (Homo sapiens, NCI-H358, 3 h).

Take `C=CC(=O)N1CCN2C(=O)c3c(F)c(F)c(-c4ccc(F)c5sc(N)c(C#N)c45)c4cnn(c34)CC[C@H]2C1` (atropisomer, axis not shown) [Example 11-P2, (S)-4-((S)-10-Acryloyl-1,2-difluoro-14-oxo-8,8a,9,10,11,12-hexahydro-7H,14H-pyrazino[1′,2′:5.6][1,5]diazocino[3,2,1-hi]indazol-3-yl)-2-amino-7-fluorobenzo[b]thiophene-3-carbonitrile]: the IC50 was found to be 0.32 nM with H358 cells, 0.46 nM with MIA PaCa-2 cells and 0.09 nM in assay [1].

In the case of `C=C(F)C(=O)N1CCN2C(=O)c3cc(F)c(-c4ccc(F)c5sc(N)c(C#N)c45)c4ccn(c34)CC[C@H]2C1` [Example 5, 2-Amino-7-fluoro-4-((S)-2-fluoro-10-(2-fluoroacryloyl)-14-oxo-8,8a,9,10,11,12-hexahydro-7H,14H-pyrazino[1′,2′:5,6][1,5]diazocino[3,2,1-hi]indol-3-yl)benzo[b]thiophene-3-carbonitrile], the IC50 in assay [1] (Homo sapiens, NCI-H358, 3 h) amounted to 36.2 nM.

With `C=CC(=O)N1CCN2C(=O)c3cc(F)c(-c4ccc(F)c5sc(N)c(C#N)c45)c4cnn(c34)CC[C@@H]2C1` (atropisomer, axis not shown) [Example 12-P2, (S)-4-((R)-10-Acryloyl-2-fluoro-14-oxo-8,8a,9,10,11,12-hexahydro-7H,14H-pyrazino[1′,2′:5,6][1,5]diazocino[3,2,1-hi]indazol-3-yl)-2-amino-7-fluorobenzo[b]thiophene-3-carbonitrile], the IC50 stood at 35.3 nM in the assay on MIA PaCa-2 cells (Homo sapiens, MIA PaCa-2, 72 h) and 11.3 nM in assay [1] (Homo sapiens, NCI-H358, 3 h).

In the case of `C=CC(=O)N1CCN2C(=O)c3cc(F)c(-c4ccc(F)c5sc(N)c(C#N)c45)c4c(C)nn(c34)CC[C@H]2C1` (atropisomer, axis not shown) [Example 9-P1, (R)-4-((S)-10-Acryloyl-2-fluoro-4-methyl-14-oxo-8,8a,9,10,11,12-hexahydro-7H,14H-pyrazino[1′,2′:5,6][1,5]diazocino[3,2,1-hi]indazol-3-yl)-2-amino-7-fluorobenzo[b]thiophene-3-carbonitrile], the IC50 in assay [1] came to 32.5 nM.
